These results are taken from US8343957B2, “Therapeutic pyrazoloquinoline urea derivatives” (Dart Neuroscience (Cayman) Ltd., priority 2007, dated 2013).

In this assay the target is GABAA central benzodiazepine receptor. The assay can be described thus: Benzodiazepine Binding Assay. As to conditions: read-out: BZ binding Assay IC50; 1 nM (3H)-flunitrazepam, rat whole brain (except cerebellum) membranes, 60 minutes at 25° C.
In general, IC50 refers to the concentration at which inhibition is half-maximal. As to `COc1ccc2c(c1)c1nn(-c3ccccc3)c(=O)c-1cn2C(=O)N1CCN(C(C)C)CC1` [Compd 23, 5-(4-Isopropylpiperazine-1-carbonyl)-8-methoxy-2-phenyl-2,5-dihydro-pyrazolo-(4,3-c)quinolin-3-one], the concentration for half-maximal inhibition (IC50) was < 1 µM.

As to `CN1CCN(C(=O)n2cc3c(=O)n(-c4ccccc4)nc-3c3cc(F)c(F)cc32)CC1` [Compd 22, 5-(4-Methylpiperazine-1-carbonyl)-7,8-difluoro-2-phenyl-2,5-dihydro-pyrazolo-(4,3-c)quinolin-3-one], the IC50 was < 1 µM.

As for `CN1CCN(C(=O)n2cc3c(=O)n(-c4ccccc4)nc-3c3ccccc32)CC1` [Compd 36, 5-(4-Methylpiperazine-1-carbonyl)-2-phenyl-2,5-dihydro-pyrazolo-(4,3-c)quinolin-3-one], the IC50 was < 1 µM.

For `COc1ccc(-n2nc3c4cc(F)c(F)cc4n(C(=O)N4CCN(C(C)C)CC4)cc-3c2=O)cc1` [Compd 38, 5-(4-Isopropylpiperazine-1-carbonyl)-7,8-difluoro-2-(4′-methoxyphenyl)-2,5-dihydro-pyrazolo-(4,3-c)quinolin-3-one], the IC50 is < 1 µM.

In the case of `O=C(N1CCOCC1)n1cc2c(=O)n(-c3ccccc3)nc-2c2ccccc21` [Compd 13, 5-(Morpholine-4-carbonyl)-2-phenyl-2,5-dihydro-pyrazolo-(4,3-c)quinolin-3-one], the IC50 is > 1 µM.

`CN(C)C(=O)n1cc2c(=O)n(-c3ccccc3)nc-2c2ccccc21` [Compd 32, 5-(Dimethylaminocarbonyl)-2-phenyl-2,5-dihydro-pyrazolo-(4,3-c)quinolin-3-one]: the IC50 is < 1 µM.

Regarding `CC1CN(C(=O)n2cc3c(=O)n(-c4ccccc4)nc-3c3ccccc32)CC(C)N1` (stereo not drawn) [Compd 11, 5-(3,5-Dimethylpiperazine-1-carbonyl)-2-phenyl-2,5-dihydro-pyrazolo-(4,3-c)quinolin-3-one], the IC50 is < 1 µM.

For the molecule `Cc1ccc2c(c1)c1nn(-c3ccccc3)c(=O)c-1cn2C(=O)N1CCC(O)CC1` [Compd 27, 5-(4-Hydroxypiperidine-1-carbonyl)-8-methyl-2-phenyl-2,5-dihydro-pyrazolo-(4,3-c)quinolin-3-one], the IC50 is < 1 µM.

As to `CN1CCCN(C(=O)n2cc3c(=O)n(-c4ccccc4)nc-3c3cc(F)c(F)cc32)CC1` [Compd 52, 5-(4-Methylperhydro[1,4]-diazepine-1-carbonyl)-7,8-difluoro-2-phenyl-2,5-dihydro-pyrazolo[4,3-c]quinolin-3-one], the IC50 is < 1 µM.

For the molecule `Cc1c2c(=O)n(-c3ccccc3)nc-2c2ccccc2n1C(=O)N1CCN(C(C)C)CC1` [Compd 43, 5-(4-Isopropylpiperazine-1-carbonyl)-4-methyl-2-phenyl-2,5-dihydro-pyrazolo[4,3-c]quinolin-3-one], the IC50 was < 1 µM.

Take `O=C(N1CCC(O)CC1)n1cc2c(=O)n(-c3ccsc3)nc-2c2cc(F)c(F)cc21` [Compd 50, 5-(4-Hydroxypiperidine-1-carbonyl)-2-(thiophen-3-yl)-7,8-difluoro-2,5-dihydro-pyrazolo[4,3-c]quinolin-3-one]: the IC50 is < 1 µM.

For `Cc1ccc2c(c1)c1nn(-c3ccccc3)c(=O)c-1cn2C(=O)N1CCN(C(C)C)CC1` [Compd 25, 5-(4-Isopropylpiperazine-1-carbonyl)-8-methyl-2-phenyl-2,5-dihydro-pyrazolo-(4,3-c)quinolin-3-one], the IC50 is < 1 µM.

As for `CC(C)N1CCN(C(=O)n2cc3c(=O)n(-c4ccccn4)nc-3c3cc(F)c(F)cc32)CC1` [Compd 53, 5-(4-Isopropylpiperazine-1-carbonyl)-7,8-difluoro-2-(2′-pyridyl)-2,5-dihydro-pyrazolo-[4,3-c]quinolin-3-one], the IC50 is > 1 µM.

Turning to `CC1CCN(C(=O)n2cc3c(=O)n(-c4ccccc4)nc-3c3ccccc32)CC1` [Compd 5, 5-(4-Methylpiperidine-1-carbonyl)-2-phenyl-2,5-dihydro-pyrazolo-(4,3-c)quinolin-3-one], the IC50 was < 1 µM.

On to `CC(C)N1CCN(C(=O)n2cc3c(=O)n(-c4ccccc4)nc-3c3cc(N4CCOCC4)ccc32)CC1` [Compd 34, 5-(4-Isopropylpiperazine-1-carbonyl)-8-morpholino-2-phenyl-2,5-dihydro-pyrazolo-(4,3-c)quinolin-3-one], for which the IC50 is < 1 µM.

Take `COCCN1CCN(C(=O)n2cc3c(=O)n(-c4ccccc4)nc-3c3ccccc32)CC1` [Compd 7, 5-(4-(2-Methoxyethyl)-piperazine-1-carbonyl)-2-phenyl-2,5-dihydro-pyrazolo-(4,3-c)quinolin-3-one]: the IC50 was < 1 µM.

Take `Cc1ccc2c(c1)c1nn(-c3ccccc3)c(=O)c-1cn2C(=O)N1CCC(F)CC1` [Compd 28, 5-(4-Fluoropiperidine-1-carbonyl)-8-methyl-2-phenyl-2,5-dihydro-pyrazolo-(4,3-c)quinolin-3-one]: the IC50 is < 1 µM.

Consider `Cc1cc2c(cc1F)c1nn(-c3ccccc3)c(=O)c-1cn2C(=O)N1CCN(C)CC1` [Compd 41, 8-Fluoro-7-methyl-5-(4-methylpiperazine-1-carbonyl)-2-phenyl-2,5-dihydro-pyrazolo-(4,3-c)quinolin-3-one], for which the IC50 was < 1 µM.

For `CC1CN(C(=O)n2cc3c(=O)n(-c4ccccc4)nc-3c3ccccc32)CC(C)O1` (stereo not drawn) [Compd 6], the IC50 was < 1 µM.

Consider `CCCN1CCN(C(=O)n2cc3c(=O)n(-c4ccccc4)nc-3c3ccccc32)CC1` [Compd 40, 5-(4-Propylpiperazine-1-carbonyl)-2-phenyl-2,5-dihydro-pyrazolo-(4,3-c) quinolin-3-one], for which the IC50 is < 1 µM.

`CC(C)N1CCN(C(=O)n2cc3c(=O)n(-c4ccc(Cl)cc4)nc-3c3cc(F)ccc32)CC1` [Compd 35, 5-(4-Isopropylpiperazine-1-carbonyl)-8-fluoro-2-(4-chlorophenyl)-2,5-dihydro-pyrazolo-(4,3-c)quinolin-3-one]: the IC50 was < 1 µM.

On to `COc1ccc(-n2nc3c4ccccc4n(C(=O)N4CCN(C(C)C)CC4)cc-3c2=O)cc1` [Compd 17, 5-(4-Isopropylpiperazine-1-carbonyl)-2-(4′-methoxyphenyl)-2,5-dihydro-pyrazolo-(4,3-c)quinolin-3-one], for which the IC50 was < 1 µM.

`CN1CCN(C(=O)n2cc3c(=O)n(-c4ccccc4)nc-3c3cc(F)ccc32)CC1` [Compd 20, 5-(4-Methylpiperazine-1-carbonyl)-8-fluoro-2-phenyl-2,5-dihydro-pyrazolo-(4,3-c)quinolin-3-one]: the IC50 is < 1 µM.

For `Cc1ccc2c(c1)c1nn(-c3ccccc3)c(=O)c-1cn2C(=O)N1CCN(C)CC1` [Compd 26, 5-(4-Methylpiperazine-1-carbonyl)-8-methyl-2-phenyl-2,5-dihydro-pyrazolo-(4,3-c)quinolin-3-one], the IC50 is < 1 µM.

“5-(4-Isopropylpiperazine-1-carbonyl)-7,8-difluoro-4-methyl-2-phenyl-2,5-dihydro-pyrazolo-(4,3-c)quinolin-3-one [Compd 48]”: the IC50 was > 1 µM.

In the case of `CN1CCN(C(=O)n2cc3c(=O)n(-c4ccccc4F)nc-3c3ccccc32)CC1` [Compd 16, 5-(4-Methylpiperazine-1-carbonyl)-2-(2′-fluorophenyl)-2,5-dihydro-pyrazolo-(4,3-c)quinolin-3-one], the IC50 was < 1 µM.

As to `CN1CCN(C(=O)n2cc3c(=O)n(-c4ccsc4)nc-3c3cc(F)c(F)cc32)CC1` [Compd 49, 5-(4-Methylpiperazine-1-carbonyl)-2-(thiophen-3-yl)-7,8-difluoro-2,5-dihydro-pyrazolo[4,3-c]quinolin-3-one], the IC50 is < 1 µM.

As to `COc1ccc(-n2nc3c4cc(F)ccc4n(C(=O)N4CCN(C(C)C)CC4)cc-3c2=O)cc1` [Compd 39, 5-(4-Isopropylpiperazine-1-carbonyl)-8-fluoro-2-(4′-methoxyphenyl)-2,5-dihydro-pyrazolo-(4,3-c)quinolin-3-one], the IC50 is < 1 µM.

Turning to `O=C(N1CCC(O)CC1)n1cc2c(=O)n(-c3ccccc3)nc-2c2ccccc21` [Compd 30, 5-(4-Hydroxypiperidine-1-carbonyl)-2-phenyl-2,5-dihydro-pyrazolo-(4,3-c)quinolin-3-one], the IC50 is > 1 µM.

On to `CC(C)N1CCN(C(=O)n2cc3c(=O)n(-c4ccccc4)nc-3c3cc(C(F)(F)F)ccc32)CC1` [Compd 46, 5-(4-Isopropyl-piperazine-1-carbonyl)-2-phenyl-8-trifluoromethyl-2,5-dihydro-pyrazolo[4,3-c]quinolin-3-one], for which the IC50 is < 0.001 µM.

For the molecule `CC(C)N1CCN(C(=O)n2cc3c(=O)n(-c4ccccc4F)nc-3c3ccccc32)CC1` [Compd 15, 5-(4-Isopropylpiperazine-1-carbonyl)-2-(2′-fluorophenyl)-2,5-dihydro-pyrazolo-(4,3-c)quinolin-3-one], the IC50 was < 1 µM.

For the molecule `Cc1c2c(=O)n(-c3ccccc3)nc-2c2ccccc2n1C(=O)N1CCN(C)CC1` [Compd 44, 4-Methyl-5-(4-methylpiperazine-1-carbonyl)-2-phenyl-2,5-dihydro-pyrazolo[4,3-c]quinolin-3-one], the IC50 is < 1 µM.

For the molecule `CC(C)N1CCN(C(=O)n2cc3c(=O)n(-c4ccccc4)nc-3c3cc(F)ccc32)CC1` [Compd 19, 5-(4-Isopropylpiperazine-1-carbonyl)-8-fluoro-2-phenyl-2,5-dihydro-pyrazolo-(4,3-c)quinolin-3-one], the IC50 is < 1 µM.

Regarding `Cc1c2c(=O)n(-c3ccccc3)nc-2c2cc(F)c(F)cc2n1C(=O)N1CCN(C)CC1` [Compd 47, 5-(4-Methylpiperazine-1-carbonyl)-7,8-difluoro-4-methyl-2-phenyl-2,5-dihydro-pyrazolo-(4,3-c)quinolin-3-one], the IC50 was > 1 µM.

As for `O=C(N1CCC(O)CC1)n1cc2c(=O)n(-c3ccccc3)nc-2c2cc(F)c(F)cc21` [Compd 51, 5-(4-Hydroxypiperidine-1-carbonyl)-2-phenyl-7,8-difluoro-2,5-dihydro-pyrazolo[4,3-c]quinolin-3-one], the IC50 was > 1 µM.

`COc1ccc(-n2nc3c4ccccc4n(C(=O)N4CCN(C)CC4)cc-3c2=O)cc1` [Compd 18, 5-(4-Methylpiperazine-1-carbonyl)-2-(4′-methoxyphenyl)-2,5-dihydro-pyrazolo-(4,3-c)quinolin-3-one]: the IC50 is < 1 µM.
